Data on 21 molecules can be found in article PMC3335016, “Analysis of the Nse3/MAGE-Binding Domain of the Nse4/EID Family Proteins” (PLoS ONE, 2012).

One experiment has as its system MAGEC2(129-339) protein. As to the kind of experiment: PEPSCAN ELISA of EID2 mutant peptides. The class given is binding, human. The note with it: His-S-MAGEC2(129-339) 200-400 nM, 450 nm; for binding affinity to MAGEC2 relative to wild-type peptide: biotinylated peptide 400 nM on streptavidin-coated plates, 4°C overnight, anti-His/peroxidase, TMB, mean of 3 independent measurements, background = His-hTRF2 control; for binding affinity to MAGEC2 compared with wild-type peptide (in words): biotinylated peptide 400 nM, 3 independent measurements. As for the experimental part:
A peptide library of the alanine mutant peptides (Table 1) of the aa 197-217 region of the human EID2 protein was obtained from Mimotopes (Australia). The library was linked to biotin via an additional peptide spacer of serine–glycine–serine–glycine. Each well on ELISA 96-well plates was coated with 100 µl of 5 µg/ml streptavidin (Sigma), incubated overnight at 37°C and then blocked with 3% bovine serum albumin (BSA) in PBS for 2 h at room temperature. The biotinylated peptides (400 nM, in PBS with 0.1% BSA) were applied into wells to saturate their surface and incubated at room temperature for 1 h. The plates were washed three times with 0.1% Tween 20 in PBS and then His-S-MAGEC2(129-339) protein was added (200–400 nM). Plates were incubated at 4°C overnight before washing (as above) to remove unbound protein. First anti-His antibody (Sigma; diluted 1/1000 in PBS with 1% BSA) was incubated for 2 h, washed three times and secondary peroxidase-conjugated rabbit-antiserum against mouse immunoglobulins (DAKO; diluted 1/1000 in PBS with 1% BSA) was added for 1 h (at 4°C). Peroxidase enzyme activity was measured with tetramethylbenzidine and the results were monitored using an automatic ELISA plate reader at a wavelength 450 nm.

In another experiment the test system is necdin (aa 1-321). Put plainly: Pull-down of biotin-tagged EID2 peptides on streptavidin-agarose beads. It is filed as binding, human. The note with it: in vitro translated necdin, 2 h at 4°C in PBS, SDS-PAGE, phosphorimaging. Here is the method:
Biotin-tagged EID2 peptides were preincubated overnight with streptavidin-agarose beads (Thermo Scientfic) at 4°C. The beads were washed 2 times with 0.1% Tween 20 in PBS buffer, then in vitro-expressed proteins in a total volume of 200 µl PBS buffer were added and incubated for 2 h at 4°C. The beads were washed 4 times with 0.1% Tween 20 in PBS buffer and the bound proteins were eluted in SDS sample buffer and boiled. Input, unbound, and bound fractions of the in vitro expressed proteins were separated by SDS-PAGE and analyzed by phosphorimaging (FLA-7000, Fujifilm). The bound fractions were analyzed by dot blotting to ensure equal EID2 peptide levels were used in pull down assays (data not shown).

The target of a further experiment is T1, His-S-MAGEC2(129-339) (human, UniProt Q9UBF1 129-339).
T1 construct: source: E. coli C41, purified (His-TRAP column, FPLC)
T1 sequence (looked up): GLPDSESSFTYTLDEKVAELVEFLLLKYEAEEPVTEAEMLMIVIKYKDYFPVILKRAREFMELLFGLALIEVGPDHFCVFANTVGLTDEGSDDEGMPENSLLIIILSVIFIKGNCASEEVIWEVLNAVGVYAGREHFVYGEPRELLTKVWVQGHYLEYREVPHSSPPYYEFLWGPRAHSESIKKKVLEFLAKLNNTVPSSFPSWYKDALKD
Put plainly: ELISA; PEPSCAN ELISA; biotinylated EID2 peptides (400 nM) on streptavidin-coated plates; His-S-MAGEC2(129-339) 200–400 nM, 4°C overnight; anti-His detection. The following applies: both partners purified.

Where no end group is shown, it is not given here. The star is where a group is joined. Biotin = O=C1N[C@H]2[C@H](CS[C@H]2CCCCC(=O)*)N1

As for “QRNPHRVDLDILTFTIALTAA [peptide #19, EID2 alanine mutant peptide S217A]”, the “binding affinity to MAGEC2 relative to wild-type peptide” value in the experiment with MAGEC2(129-339) protein is listed as ~30 % of WT affinity. “QRNPHRVDADILTFTIALTAS [peptide #9, EID2 alanine mutant peptide L205A]”: in the experiment with MAGEC2(129-339) protein, the “binding affinity to MAGEC2 relative to wild-type peptide” value was ~30 % of WT affinity.

Consider “QRNPHRVDLAILTFTIALTAS [peptide #10, EID2 alanine mutant peptide D206A]”, for which the “binding affinity to MAGEC2 relative to wild-type peptide” value with MAGEC2(129-339) protein is on record as ~30 % of WT affinity. Take “QANPHRVDLDILTFTIALTAS [peptide #2, EID2 alanine mutant peptide R198A]”: in the experiment on necdin (aa 1-321), the “binding of necdin to peptide (pull-down, in words)” value (shortened to “binding of necdin to peptide”) is given as “comparable to the wild-type peptide”. In addition, in the experiment on MAGEC2(129-339) protein, the “binding affinity to MAGEC2 relative to wild-type peptide” value is recorded as < 20 % of WT affinity and the “binding affinity to MAGEC2 compared with wild-type peptide (in words)” value was “significantly reduced”.

Take “QRNPHRVDLDILTATIALTAS [peptide #14, EID2 alanine mutant peptide F210A]”: the “binding of necdin to peptide” value in the experiment with necdin (aa 1-321) is “significantly reduced”. Also, the “binding affinity to MAGEC2 relative to wild-type peptide” value in the experiment on MAGEC2(129-339) protein was < 20 % of WT affinity. With “QRNPHRVDLDIATFTIALTAS [peptide #12, EID2 alanine mutant peptide L208A]”, the “binding affinity to MAGEC2 relative to wild-type peptide” value in the experiment on MAGEC2(129-339) protein is ~30 % of WT affinity. In the case of “QRNPHRVDLDILTFTAALTAS [peptide #16, EID2 alanine mutant peptide I212A]”, the “binding of necdin to peptide” value in the experiment on necdin (aa 1-321) is given as “significantly reduced”. In the experiment on MAGEC2(129-339) protein, the “binding affinity to MAGEC2 relative to wild-type peptide” value is given as < 20 % of WT affinity. Consider “QRNPHRVDLDILTFTIAATAS [peptide #17, EID2 alanine mutant peptide L214A]”, for which, in the experiment with MAGEC2(129-339) protein, the “binding affinity to MAGEC2 relative to wild-type peptide” value is listed as < 20 % of WT affinity.

With “QRNPHAVDLDILTFTIALTAS [peptide #6, EID2 alanine mutant peptide R202A]”, the “binding affinity to MAGEC2 relative to wild-type peptide” value with MAGEC2(129-339) protein is listed as < 20 % of WT affinity.

In the case of “QRNPHRVDLDILTFTIALAAS [peptide #18, EID2 alanine mutant peptide T215A]”, in the experiment with MAGEC2(129-339) protein, the “binding affinity to MAGEC2 relative to wild-type peptide” value was ~30 % of WT affinity. Still for that read-out and setting: the result for “QRNPHRVDLDALTFTIALTAS [peptide #11, EID2 alanine mutant peptide I207A]” reads ~30 % of WT affinity. Take “QRNPHRVALDILTFTIALTAS [peptide #8, EID2 alanine mutant peptide D204A]”: in the experiment on MAGEC2(129-339) protein, the “binding affinity to MAGEC2 compared with wild-type peptide (in words)” value is given as “comparable to that of the wild-type peptide”. In the case of “ARNPHRVDLDILTFTIALTAS [peptide #1, EID2 alanine mutant peptide Q197A]”, the “binding of necdin to peptide” value with necdin (aa 1-321) is reported as “comparable to the wild-type peptide”. Further, in the experiment on MAGEC2(129-339) protein, the “binding affinity to MAGEC2 relative to wild-type peptide” value was ~30 % of WT affinity and the “binding affinity to MAGEC2 compared with wild-type peptide (in words)” value was “significantly reduced”.

For the molecule Biotin-SGSGQRAPHRVDLDILTFTIALTAS (source: synthetic peptide (Mimotopes)) [EID2 peptide #3], the binding result with His-S-MAGEC2(129-339) was “binds”.

On to Biotin-SGSGQRNPHRVALDILTFTIALTAS (source: synthetic peptide (Mimotopes)) [EID2 peptide #8 (D204A)], for which, in the experiment with His-S-MAGEC2(129-339), the binding result was “binds”. Same read-out and setting: as for Biotin-SGSGQRNPHRADLDILTFTIALTAS (source: synthetic peptide (Mimotopes)) [EID2 peptide #7], the entry is “binds”. The same measure, in the same setting: the result for Biotin-SGSGQRNAHRVDLDILTFTIALTAS (source: synthetic peptide (Mimotopes)) [EID2 peptide #4] reads “binds”.

B1: EID2 WT peptide (aa 197-217) (peptide)
peptide: Biotin-SGSGQRNPHRVDLDILTFTIALTAS
notes: also called wild-type peptide; long EID2 peptide; source: synthetic peptide (Mimotopes); not shown: biotin-SGSG spacer, N-terminal, kept
In the case of B1, the binding result with His-S-MAGEC2(129-339) was “binds”. Turning to Biotin-SGSGQRNPARVDLDILTFTIALTAS (source: synthetic peptide (Mimotopes)) [EID2 peptide #5], in the experiment with His-S-MAGEC2(129-339), the binding result is given as “binds”. On the same count and under the same terms, as for Biotin-SGSGQRNPHRVDLDILAFTIALTAS (source: synthetic peptide (Mimotopes)) [EID2 peptide #13], the entry is “binds”; as for Biotin-SGSGQRNPHRVDLDILTFAIALTAS (source: synthetic peptide (Mimotopes)) [EID2 peptide #15], “binds”.
